Measured values as given in patent publication US9221827B2, “Antimicrobial compounds and methods of making and using the same” (Melinta Therapeutics, Inc., priority 2011, dated 2015).

Test system: Escherichia coli strain ATCC25922
Experiment: standard microdilution assay to determine minimum inhibitory concentrations (MICs)
Assay type: cell-based
Procedure, shortened: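 MICs come from CLSI-guided microdilution in 100 μl, run alongside reference-strain performance standards. Values appear as "+" or "−" relative to 16 micrograms/ml, with "N/A" marking missing data.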

[1] = Escherichia coli strain ATCC25922, standard microdilution assay
[2] = Escherichia coli strain ATCC25922, microdilution

C[C@H](NCCCNC(=N)N)c1ccc(-n2cc3cc(-c4cc(COCC(C)(C)N)cc(C(F)(F)F)c4)[nH]c3nc2=O)cc1 [Compound 455]
E. coli ATCC25922 MIC [1]: + (a “+” indicates that the compound has an MIC value of 16 micrograms/ml or less)

N=C(N)NCCCNCc1ccc(-n2cc3cc(-c4cc(CCCCN)cc(-n5ccnn5)c4)[nH]c3nc2=O)cc1 [Compound 55]
E. coli ATCC25922 MIC [2]: + (a “+” indicates that the compound has an MIC value of 16 micrograms/ml or less)

C[C@H](NCCCNC(=N)N)c1ccc(-n2cc3cc(-c4cc(C[C@H]5C[C@@H](CN)C5)cc(SC(F)(F)F)c4)[nH]c3nc2=O)cc1 [Compound 402]
E. coli ATCC25922 MIC [1]: + (a “+” indicates that the compound has an MIC value of 16 micrograms/ml or less)

CC(CN)Cc1cc(-c2cc3cn(-c4ccc(CNCCCNC(=N)N)cc4)c(=O)nc3[nH]2)cc(C(F)(F)F)c1 (stereo not shown) [Compound 242]
E. coli ATCC25922 MIC [2]: + (a “+” indicates that the compound has an MIC value of 16 micrograms/ml or less)

C[C@H](N)CCCc1cc(-c2cc3cn(-c4ccc([C@H](C)NCCCNC(=N)N)cc4)c(=O)nc3[nH]2)cc2c1OCCO2 [Compound 469]
E. coli ATCC25922 MIC [2]: + (a “+” indicates that the compound has an MIC value of 16 micrograms/ml or less)

N=C(N)NCCCNCc1ccc(-n2cc3cc(-c4cc(CCC[C@@H](N)CO)cc(Cl)c4F)[nH]c3nc2=O)cc1 [Compound 342]
E. coli ATCC25922 MIC [1]: + (a “+” indicates that the compound has an MIC value of 16 micrograms/ml or less)

CCOc1cc(CCCCN)cc(-c2cc3cn(-c4ccc(CNCCCNC(=N)N)cc4)c(=O)nc3[nH]2)c1F [Compound 245]
E. coli ATCC25922 MIC [2]: + (a “+” indicates that the compound has an MIC value of 16 micrograms/ml or less)

CC(C)(N)CCCc1cc(Cl)c(F)c(-c2cc3cn(-c4ccc(CN)cc4)c(=O)nc3[nH]2)c1 [Compound 372]
E. coli ATCC25922 MIC [1]: − (a “−” indicates that the compound has an MIC value greater than 16 micrograms/ml)

NCCCCc1cc(-c2cc3cn(-c4ccc(CNCCCN=C(N)N)cc4)c(=O)nc3[nH]2)c(Cl)c(C(F)(F)F)c1 [Compound 64]
E. coli ATCC25922 MIC [2]: + (a “+” indicates that the compound has an MIC value of 16 micrograms/ml or less)

C[C@H](N)CCCc1cc(-c2cc3cn(-c4ccc([C@H](C)NCCCNC(=N)N)cc4)c(=O)nc3[nH]2)cc(Cl)n1 [Compound 428]
E. coli ATCC25922 MIC [1]: + (a “+” indicates that the compound has an MIC value of 16 micrograms/ml or less)

CC(N)CCCc1cc(Cl)c(F)c(-c2cc3cn(-c4ccc(C(CCO)NCCCNC(=N)N)cc4)c(=O)nc3[nH]2)c1 (stereo not shown) [Compound 506]
E. coli ATCC25922 MIC [2]: + (a “+” indicates that the compound has an MIC value of 16 micrograms/ml or less)

C[C@H](N)CCCc1cc(-c2cc3cn(-c4ccc([C@H](C)NCCCNC(=N)N)cc4)c(=O)nc3[nH]2)cc2c1CCC2 [Compound 393]
E. coli ATCC25922 MIC [1]: + (a “+” indicates that the compound has an MIC value of 16 micrograms/ml or less)

COCc1cc(CCCCN)cc(-c2cc3cn(-c4ccc(CNCCCNC(=N)N)cc4)c(=O)nc3[nH]2)c1 [Compound 3]
E. coli ATCC25922 MIC [2]: + (a “+” indicates that the compound has an MIC value of 16 micrograms/ml or less)

CS(=O)(=O)CCc1cc(CCCCN)cc(-c2cc3cn(-c4ccc(CNCCCNC(=N)N)cc4)c(=O)nc3[nH]2)c1 [Compound 22]
E. coli ATCC25922 MIC [2]: + (a “+” indicates that the compound has an MIC value of 16 micrograms/ml or less)

CC(C)c1cc(CCCCN)cc(-c2cc3cn(-c4ccc([C@H](C)NCCCNC(=N)N)cc4)c(=O)nc3[nH]2)c1 [Compound 78]
E. coli ATCC25922 MIC [2]: + (a “+” indicates that the compound has an MIC value of 16 micrograms/ml or less)

CC(N)CCCc1cc(-c2cc3cn(-c4ccc(CNCCCCC(=N)N)cc4)c(=O)nc3[nH]2)cc(C(F)(F)F)c1 (stereo not shown) [Compound 365]
E. coli ATCC25922 MIC [1]: − (a “−” indicates that the compound has an MIC value greater than 16 micrograms/ml)

N=C(N)NCCCNCc1ccc(-n2cc3cc(-c4cc(OC(F)(F)F)cc(C(F)CCCN)c4)[nH]c3nc2=O)cc1 (stereo not shown) [Compound 58]
E. coli ATCC25922 MIC [2]: + (a “+” indicates that the compound has an MIC value of 16 micrograms/ml or less)

N=C(N)NCCCNCc1ccc(-n2cc3cc(-c4cc(CCC(O)CN)ccc4F)[nH]c3nc2=O)cc1 (stereo not shown) [Compound 258]
E. coli ATCC25922 MIC [2]: + (a “+” indicates that the compound has an MIC value of 16 micrograms/ml or less)

CC(CCN)Cc1cc(-c2cc3cn(-c4ccc(CNCCCNC(=N)N)cc4)c(=O)nc3[nH]2)cc(F)c1Cl (stereo not shown) [Compound 129]
E. coli ATCC25922 MIC [2]: + (a “+” indicates that the compound has an MIC value of 16 micrograms/ml or less)

C[C@H](CNCc1ccc(-n2cc3cc(-c4cc(CCCCN)cc(OC(F)(F)F)c4)[nH]c3nc2=O)cc1)CNC(=N)N [Compound 34]
E. coli ATCC25922 MIC [2]: + (a “+” indicates that the compound has an MIC value of 16 micrograms/ml or less)

N=C(N)NCCCNCc1ccc(-n2cc3cc(-c4cc(CCCCN)cc(C5CC5)c4)[nH]c3nc2=O)cc1 [Compound 18]
E. coli ATCC25922 MIC [2]: + (a “+” indicates that the compound has an MIC value of 16 micrograms/ml or less)

C[C@@H](CN)OCc1cc(SC(F)(F)F)cc(-c2cc3cn(-c4ccc(CNCCCNC(=N)N)cc4)c(=O)nc3[nH]2)c1 [Compound 326]
E. coli ATCC25922 MIC [2]: + (a “+” indicates that the compound has an MIC value of 16 micrograms/ml or less)

N=C(N)NCCCNCc1ccc(-n2cc3cc(-c4cc(CCCN)cc(Cl)c4F)[nH]c3nc2=O)cc1 [Compound 228]
E. coli ATCC25922 MIC [2]: + (a “+” indicates that the compound has an MIC value of 16 micrograms/ml or less)

CC(C)(N)COCc1cc(-c2cc3cn(-c4ccc(CNCCCNC(=N)N)cc4)c(=O)nc3[nH]2)cc(C(F)(F)F)c1 [Compound 454]
E. coli ATCC25922 MIC [1]: + (a “+” indicates that the compound has an MIC value of 16 micrograms/ml or less)

CC(C)c1cccc(OCCCN)c1NC(=O)Nc1nc(=O)c(-c2ccc(CNCCCNC(=N)N)cc2)c[nH]1 [Compound 186]
E. coli ATCC25922 MIC [2]: − (a “−” indicates that the compound has an MIC value greater than 16 micrograms/ml)

CCC[C@H](NCCCNC(=N)N)c1ccc(-n2cc3cc(-c4cc(CCC[C@H](C)N)cc(Cl)c4F)[nH]c3nc2=O)cc1 [Compound 415]
E. coli ATCC25922 MIC [1]: + (a “+” indicates that the compound has an MIC value of 16 micrograms/ml or less)

CC(N)CCCc1cc(Cl)c(F)c(-c2cc3cn(-c4ccc(C5(NCCCNC(=N)N)CC5)cc4)c(=O)nc3[nH]2)c1 (stereo not shown) [Compound 486]
E. coli ATCC25922 MIC [2]: + (a “+” indicates that the compound has an MIC value of 16 micrograms/ml or less)

N=C(N)NCCCNCc1ccc(-n2cc3cc(-c4cc(CC5CC(N)C5)cc(Cl)c4F)[nH]c3nc2=O)cc1 (stereo not shown) [Compound 333]
E. coli ATCC25922 MIC [1]: + (a “+” indicates that the compound has an MIC value of 16 micrograms/ml or less)

N=C(N)NCCCNCc1ccc(-c2c[nH]c(NC(=O)Nc3cc(C(F)F)ccc3OCCCN)nc2=O)cc1 [Compound 188]
E. coli ATCC25922 MIC [2]: + (a “+” indicates that the compound has an MIC value of 16 micrograms/ml or less)

CC[C@H](NCCCNC(=N)N)c1ccc(-n2cc3cc(-c4cc(CCC[C@H](C)N)cc(C(F)(F)F)c4)[nH]c3nc2=O)cc1 [Compound 400]
E. coli ATCC25922 MIC [1]: + (a “+” indicates that the compound has an MIC value of 16 micrograms/ml or less)

N=C(N)NCCCNCc1ccc(-n2cc3cc(-c4cc(CCCCN)cc(F)c4C(F)(F)F)[nH]c3nc2=O)cc1 [Compound 218]
E. coli ATCC25922 MIC [2]: + (a “+” indicates that the compound has an MIC value of 16 micrograms/ml or less)

C[C@H](N)COCc1cc(OC(F)(F)F)cc(-c2cc3cn(-c4ccc(CNCCCNC(=N)N)cc4)c(=O)nc3[nH]2)c1 [Compound 311]
E. coli ATCC25922 MIC [2]: + (a “+” indicates that the compound has an MIC value of 16 micrograms/ml or less)

COC(=O)C(NCCCNC(=N)N)c1ccc(-n2cc3cc(-c4cc(CCCC(C)N)cc(Cl)c4F)[nH]c3nc2=O)cc1 (stereo not shown) [Compound 494]
E. coli ATCC25922 MIC [2]: + (a “+” indicates that the compound has an MIC value of 16 micrograms/ml or less)

CN=C(N)NCCCNCc1ccc(-n2cc3cc(-c4cc(CCCC(C)N)cc(Cl)c4F)[nH]c3nc2=O)cc1 (stereo not shown) [Compound 382]
E. coli ATCC25922 MIC [1]: + (a “+” indicates that the compound has an MIC value of 16 micrograms/ml or less)

N=C(N)NCCCCc1cc(F)c(Cl)c(-c2cc3cn(-c4ccc(CNCCCNC(=N)N)cc4)c(=O)nc3[nH]2)c1 [Compound 38]
E. coli ATCC25922 MIC [2]: + (a “+” indicates that the compound has an MIC value of 16 micrograms/ml or less)

CNC[C@@H]1C[C@@H](NC(=O)Nc2nc(=O)c(-c3ccc(CNCCCNC(=N)N)cc3)c[nH]2)CN1C[C@@H](C)CN [Compound 151]
E. coli ATCC25922 MIC [2]: + (a “+” indicates that the compound has an MIC value of 16 micrograms/ml or less)

CC(NCCCNC(=N)N)c1ccc(-n2cc3cc(-c4cc(CCC5(CN)CC5)cc(Cl)c4F)[nH]c3nc2=O)cc1 (stereo not shown) [Compound 272]
E. coli ATCC25922 MIC [2]: + (a “+” indicates that the compound has an MIC value of 16 micrograms/ml or less)

Cc1cc(-c2cc3cn(-c4ccc(CNCCCN=C(N)N)cc4)c(=O)nc3[nH]2)cc(CCCCNC(=N)N)c1F [Compound 74]
E. coli ATCC25922 MIC [2]: + (a “+” indicates that the compound has an MIC value of 16 micrograms/ml or less)

C[C@@H](N)CCc1cc(SC(F)(F)F)cc(-c2cc3cn(-c4ccc(CNCCCNC(=N)N)cc4)c(=O)nc3[nH]2)c1 [Compound 397]
E. coli ATCC25922 MIC [1]: + (a “+” indicates that the compound has an MIC value of 16 micrograms/ml or less)

CC(N)CCc1cc(Cl)c(F)c(-c2cc3cn(-c4ccc(CNCCCNC(=N)N)cc4)c(=O)nc3[nH]2)c1 (stereo not shown) [Compound 278]
E. coli ATCC25922 MIC [2]: + (a “+” indicates that the compound has an MIC value of 16 micrograms/ml or less)

N#Cc1cc(CCCCN)cc(-c2cc3cn(-c4ccc(CNCCCNC(=N)N)cc4)c(=O)nc3[nH]2)c1Cl [Compound 114]
E. coli ATCC25922 MIC [2]: + (a “+” indicates that the compound has an MIC value of 16 micrograms/ml or less)

C[C@H](NCCCNC(=N)N)c1ccc(-n2cc3cc(-c4cc(COC5COCC5N)cc(OC(F)(F)F)c4)[nH]c3nc2=O)cc1 (stereo partly shown) [Compound 460]
E. coli ATCC25922 MIC [1]: + (a “+” indicates that the compound has an MIC value of 16 micrograms/ml or less)

CC(NCCCNC(=N)N)c1ccc(-n2cc3cc(-c4cc(OC(F)(F)F)cc(C5CCC(CN)O5)c4)[nH]c3nc2=O)cc1 (stereo not shown) [Compound 438]
E. coli ATCC25922 MIC [1]: + (a “+” indicates that the compound has an MIC value of 16 micrograms/ml or less)
